According to the supplement of paper PMC10307832:

Assays:
Assay in all cases: relative viability (nuclei count vs DMSO), 5 days (fraction); higher = more cells survive
[1] = tested on: A549
Method in brief: (§1)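 Relative viability is defined as nuclei in treated wells over nuclei in vehicle wells. Duplicate plates were run and medians reported. Lung cancer cell lines in 1536-well plates were dosed by pin tool one day after seeding, with one drug or with a fixed anchor-drug dose plus five library-drug doses (not always all listed) in √10 steps, and nuclei were counted after 5 days.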

[2] = tested on: ABC-1
Method in brief: as §1

[3] = tested on: EMC-BAC-2
Method in brief: as §1

[4] = tested on: NCI-H1648
Method in brief: as §1

[5] = tested on: NCI-H2009
Method in brief: as §1

[6] = tested on: IA-LM
Method in brief: as §1

[7] = tested on: NCI-H2228
Method in brief: as §1

[8] = tested on: Calu-6
Method in brief: as §1

[9] = tested on: EBC-1
Method in brief: as §1

[10] = tested on: NCI-H1299
Method in brief: as §1

[11] = tested on: NCI-H1703
Method in brief: as §1

Cc1csc(=NC2CCCCC2)n1/N=C/c1ccc(O)c(O)c1O [MIM1] + Nc1ncn([C@H]2C[C@H](O)[C@@H](CO)O2)c(=O)n1 [Decitabine] (partner 2 µM)
relative viability ([1]; first compound 0.2 µM): 0.217
relative viability ([1]; first compound 0.6325 µM): 0.208
relative viability ([1]; first compound 2 µM): 0.353
relative viability ([1]; first compound 6.325 µM): 0.272
relative viability ([1]; first compound 20 µM): 0.0686
relative viability ([2]; first compound 0.2 µM): 0.974
relative viability ([2]; first compound 0.6325 µM): 1.28
relative viability ([2]; first compound 2 µM): 1.14
relative viability ([2]; first compound 6.325 µM): 0.944
relative viability ([2]; first compound 20 µM): 0.427
relative viability ([3]; first compound 0.2 µM): 0.97
relative viability ([3]; first compound 0.6325 µM): 0.897
relative viability ([3]; first compound 2 µM): 0.8
relative viability ([3]; first compound 6.325 µM): 0.852
relative viability ([3]; first compound 20 µM): 0.368
relative viability ([4]; first compound 0.2 µM): 0.523
relative viability ([4]; first compound 0.6325 µM): 0.376
relative viability ([4]; first compound 2 µM): 0.486
relative viability ([4]; first compound 6.325 µM): 0.382
relative viability ([4]; first compound 20 µM): 0.35
relative viability ([5]; first compound 0.2 µM): 0.401
relative viability ([5]; first compound 0.6325 µM): 0.39
relative viability ([5]; first compound 2 µM): 0.371
relative viability ([5]; first compound 6.325 µM): 0.36
relative viability ([5]; first compound 20 µM): 0.291

Cc1csc(=NC2CCCCC2)n1/N=C/c1ccc(O)c(O)c1O [MIM1] + O=C(CCCCCCC(=O)Nc1ccccc1)NO [Vorinostat] (partner 1 µM)
relative viability ([2]; first compound 0.2 µM): 1.42
relative viability ([2]; first compound 0.6325 µM): 0.87
relative viability ([2]; first compound 2 µM): 0.994
relative viability ([2]; first compound 6.325 µM): 0.497
relative viability ([2]; first compound 20 µM): 0.247
relative viability ([3]; first compound 0.2 µM): 0.492
relative viability ([3]; first compound 0.6325 µM): 0.302
relative viability ([3]; first compound 2 µM): 0.404
relative viability ([3]; first compound 6.325 µM): 0.313
relative viability ([3]; first compound 20 µM): 0.157
relative viability ([6]; first compound 0.2 µM): 0.883
relative viability ([6]; first compound 0.6325 µM): 0.935
relative viability ([6]; first compound 2 µM): 0.93
relative viability ([6]; first compound 6.325 µM): 0.57
relative viability ([6]; first compound 20 µM): 0.159
relative viability ([4]; first compound 0.2 µM): 0.431
relative viability ([4]; first compound 0.6325 µM): 0.396
relative viability ([4]; first compound 2 µM): 0.337
relative viability ([4]; first compound 6.325 µM): 0.404
relative viability ([4]; first compound 20 µM): 0.206
relative viability ([5]; first compound 0.2 µM): 0.717
relative viability ([5]; first compound 0.6325 µM): 0.713
relative viability ([5]; first compound 2 µM): 0.685
relative viability ([5]; first compound 6.325 µM): 0.506
relative viability ([5]; first compound 20 µM): 0.372
relative viability ([7]; first compound 0.2 µM): 0.641
relative viability ([7]; first compound 0.6325 µM): 0.909
relative viability ([7]; first compound 2 µM): 0.589
relative viability ([7]; first compound 6.325 µM): 0.19
relative viability ([7]; first compound 20 µM): 0.206

Cc1csc(=NC2CCCCC2)n1/N=C/c1ccc(O)c(O)c1O [MIM1] + O=C(c1cc(Cc2n[nH]c(=O)c3ccccc23)ccc1F)N1CCN(C(=O)C2CC2)CC1 [Olaparib] (partner 8 µM)
relative viability ([1]; first compound 0.2 µM): 0.277
relative viability ([1]; first compound 0.6325 µM): 0.282
relative viability ([1]; first compound 2 µM): 0.304
relative viability ([1]; first compound 6.325 µM): 0.181
relative viability ([1]; first compound 20 µM): 0.0693
relative viability ([2]; first compound 0.2 µM): 0.952
relative viability ([2]; first compound 0.6325 µM): 1.27
relative viability ([2]; first compound 2 µM): 1.03
relative viability ([2]; first compound 6.325 µM): 0.78
relative viability ([2]; first compound 20 µM): 0.388
relative viability ([8]; first compound 0.6325 µM): 0.563
relative viability ([8]; first compound 2 µM): 0.614
relative viability ([8]; first compound 6.325 µM): 0.288
relative viability ([8]; first compound 20 µM): 0.152
relative viability ([9]; first compound 0.2 µM): 0.559
relative viability ([9]; first compound 0.6325 µM): 0.742
relative viability ([9]; first compound 2 µM): 0.673
relative viability ([9]; first compound 6.325 µM): 0.422
relative viability ([9]; first compound 20 µM): 0.338
relative viability ([3]; first compound 0.2 µM): 0.494
relative viability ([3]; first compound 2 µM): 0.433
relative viability ([3]; first compound 6.325 µM): 0.378
relative viability ([3]; first compound 20 µM): 0.212
relative viability ([6]; first compound 0.2 µM): 0.947
relative viability ([6]; first compound 0.6325 µM): 0.854
relative viability ([6]; first compound 2 µM): 0.829
relative viability ([6]; first compound 6.325 µM): 0.518
relative viability ([6]; first compound 20 µM): 0.192
relative viability ([10]; first compound 0.2 µM): 0.942
relative viability ([10]; first compound 0.6325 µM): 0.954
relative viability ([10]; first compound 2 µM): 1.03
relative viability ([10]; first compound 6.325 µM): 0.928
relative viability ([10]; first compound 20 µM): 0.728
relative viability ([4]; first compound 0.2 µM): 1
relative viability ([4]; first compound 0.6325 µM): 1.03
relative viability ([4]; first compound 2 µM): 0.697
relative viability ([4]; first compound 6.325 µM): 0.611
relative viability ([4]; first compound 20 µM): 0.298
relative viability ([11]; first compound 0.2 µM): 0.54
relative viability ([11]; first compound 0.6325 µM): 0.738
relative viability ([11]; first compound 2 µM): 0.509
relative viability ([11]; first compound 6.325 µM): 0.369
relative viability ([11]; first compound 20 µM): 0.0913
relative viability ([5]; first compound 0.2 µM): 0.662
relative viability ([5]; first compound 0.6325 µM): 0.655
relative viability ([5]; first compound 2 µM): 0.723
relative viability ([5]; first compound 6.325 µM): 0.504
relative viability ([5]; first compound 20 µM): 0.482
relative viability ([7]; first compound 0.2 µM): 0.719
relative viability ([7]; first compound 0.6325 µM): 0.719
relative viability ([7]; first compound 2 µM): 0.861
relative viability ([7]; first compound 6.325 µM): 0.227
relative viability ([7]; first compound 20 µM): 0.192
